Assays:
Assay type in all cases: biochemical
[1] = biological target: T1, Polyporus pinsitus laccase (Trametes villosa, UniProt Q99044); assay: Bleaching of methyl orange using rPpL and NOH-type enhancing agents (initial bleaching rate); details: rPpL solution diluted 1:200, 0.2 mM mediator, 30° C., large negative numbers = best performance
T1 construct: made in house
T1 sequence (Q99044 22-520): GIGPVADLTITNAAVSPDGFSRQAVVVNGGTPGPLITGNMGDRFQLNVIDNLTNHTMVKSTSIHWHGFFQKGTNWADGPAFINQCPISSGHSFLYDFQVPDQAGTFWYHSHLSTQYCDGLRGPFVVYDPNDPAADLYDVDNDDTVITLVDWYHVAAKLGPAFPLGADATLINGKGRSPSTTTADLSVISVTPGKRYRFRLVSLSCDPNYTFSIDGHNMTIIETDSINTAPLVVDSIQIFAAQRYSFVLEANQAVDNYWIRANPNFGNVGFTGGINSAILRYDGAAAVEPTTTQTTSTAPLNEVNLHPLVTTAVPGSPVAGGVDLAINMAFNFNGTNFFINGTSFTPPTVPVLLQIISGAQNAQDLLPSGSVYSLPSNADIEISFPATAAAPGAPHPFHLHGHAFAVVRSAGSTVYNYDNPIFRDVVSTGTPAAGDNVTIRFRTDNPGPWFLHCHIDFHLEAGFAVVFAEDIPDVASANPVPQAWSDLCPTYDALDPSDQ
Protocol: (§1) Britton-Robinson buffer is composed of:
(§2) Methyl orange (Merck, Germany)
(§3) Reactions were started by addition of enzyme. Absorbance at 464 nm was followed for 3 minutes (readings every 5 seconds) on a Cobas Fara at 30° C. Initial bleaching rates were determined from the first linear part of the progress curves.
(§4) The N—OH compounds listed above were tested as laccase mediators in bleaching of methyl orange with three recombinant laccases (rPpL, rMtL and rCcL) at various pH values. Large negative numbers represent the best performance.

[2] = biological target: T1, Polyporus pinsitus laccase; assay: Bleaching of methyl orange with laccase and -NOH-CO- type mediators (microtitre plate, end-point absorbance)
Protocol: Polyporus pinsitus laccase as described in Example 1.
as §2
50 μl 0.1 mg/ml methyl orange
125 μl 0.1 M Britton-Robinson buffer (see example 1)
(§5) 25 μl 2 mM mediator or water (as reference)
50 μl laccase dilution (1:400)
Methyl orange, buffer and mediator are mixed in a microtitre plate and the reaction is started by addition of laccase. Absorbance is measured at 450 nm after 15 min.
N-Hydroxyacetanilide and N-(4-cyanophenyl)-N-hydroxyacetamide were tested as mediators in bleaching of methyl orange with a laccase at pH 4-6. Low values represent the best performance.

[3] = biological target: T1, Polyporus pinsitus laccase; assay: Bleaching of various dyes with laccase and N-Hydroxyacetanilide (microtitre plate, end-point absorbance); details: + enzyme + mediator, pH 5, laccase dilution 1:400, low values = best performance
Protocol: Polyporus pinsitus laccase as described in Example 1, except that the concentration is 1726 LACU/ml.
125 μl 0.1 M Britton-Robinson buffer, pH 5 (see example 1)
as §5
50 μl laccase dilution (1:400) or water (as reference)
Dye, buffer and mediator are mixed in a micro-titre plate and the reaction is started by addition of laccase. Absorbance is measured at 595 nm after 5 min.
N-Hydroxyacetanilide was used as mediator in bleaching of various dyes with a laccase. Low values represent the best performance.

[4] = test system: Recombinant Myceliophthora thermophila laccase (rMtL); assay: Bleaching of methyl orange using rMtL and NOH-type enhancing agents (initial bleaching rate); details: rMtL solution diluted 1:300, 0.2 mM mediator, 30° C., large negative numbers = best performance
Protocol: as §1, §2, §3, §4

[5] = test system: Recombinant Coprinus cinereus laccase (rCcL); assay: Bleaching of methyl orange using rCcL and NOH-type enhancing agents (initial bleaching rate); details: for Initial changes per minute in A464 nm of methyl orange using rCcL: rCcL solution diluted 1:200, 0.2 mM mediator, 30° C., large negative numbers = best performance
Protocol: as §1, §2, §3, §4

CC(=O)N(O)c1ccccc1 [N-hydroxyacetanilide, N-Hydroxyacetanilide]
Initial changes per minute in A464 nm of methyl orange using rPpL ([1]; pH 4): −4.743 per minute
Initial changes per minute in A464 nm of methyl orange using rPpL ([1]; pH 5): −6.528 per minute
Initial changes per minute in A464 nm of methyl orange using rPpL ([1]; pH 6): −1.837 per minute
Initial changes per minute in A464 nm of methyl orange using rPpL ([1]; pH 7): −0.055 per minute
Absorbance measured at 450 nm after 15 minutes ([2]; pH 4, laccase dilution 1:400, low values = best performance): 0.077
Absorbance measured at 450 nm after 15 minutes ([2]; pH 5, laccase dilution 1:400, low values = best performance): 0.068
Absorbance measured at 450 nm after 15 minutes ([2]; pH 6, laccase dilution 1:400, low values = best performance): 0.087
Absorbance measured at 595 nm after 5 minutes ([3]; dye Acid blue 45): 0.123
Absorbance measured at 595 nm after 5 minutes ([3]; dye Acid blue 113): 0.062
Absorbance measured at 595 nm after 5 minutes ([3]; dye CSB): 0.207
Absorbance measured at 595 nm after 5 minutes ([3]; dye Cibacron Marine): 0.235
Initial changes per minute in A464 nm of methyl orange using rMtL ([4]; pH 4): −1.306 per minute
Initial changes per minute in A464 nm of methyl orange using rMtL ([4]; pH 5): −1.847 per minute
Initial changes per minute in A464 nm of methyl orange using rMtL ([4]; pH 6): −0.630 per minute
Initial changes per minute in A464 nm of methyl orange using rMtL ([4]; pH 7): −0.101 per minute
Initial changes per minute in A464 nm of methyl orange using rCcL ([5]; pH 4): −0.521 per minute
Initial changes per minute in A464 nm of methyl orange using rCcL ([5]; pH 5): −0.719 per minute
Initial changes per minute in A464 nm of methyl orange using rCcL ([5]; pH 6): −0.674 per minute
Initial changes per minute in A464 nm of methyl orange using rCcL ([5]; pH 7): −0.498 per minute
Initial changes per minute in A464 nm of methyl orange using rCcL ([5]; pH 8): −0.136 per minute
bleaching of methyl orange, result in words ([5]; summary of Tables 1-3 (rCcL, rMtL and rPpL, various pH)): surprisingly good compared with the other N—OH types enhancing agents

Source: patent US6399561B1, “Methods and compositions for bleaching a dye in solution” (Novozymes A/S, priority 1998, dated 2002)
